Source: ChEMBL document CHEMBL2073756, “Contribution of P-glycoprotein to bunitrolol efflux across blood-brain barrier” (Biopharm Drug Dispos, 1999)

What was measured:
[1] = target: ATP-dependent translocase ABCB1 (Homo sapiens, UniProt P08183); experiment: TP_TRANSPORTER: intracellular accumulation in KB cell and KB-VJ300 cells; assay type: functional, cell-based
[2] = target: ATP-dependent translocase ABCB1 (Mus musculus, UniProt P21447); experiment: TP_TRANSPORTER: increase in brain concentration in mdr1a(-/-) mouse; assay type: functional, organism-based; details: in vivo
ATP-dependent translocase ABCB1 (Mus musculus, UniProt P21447), sequence (P21447 whole entry): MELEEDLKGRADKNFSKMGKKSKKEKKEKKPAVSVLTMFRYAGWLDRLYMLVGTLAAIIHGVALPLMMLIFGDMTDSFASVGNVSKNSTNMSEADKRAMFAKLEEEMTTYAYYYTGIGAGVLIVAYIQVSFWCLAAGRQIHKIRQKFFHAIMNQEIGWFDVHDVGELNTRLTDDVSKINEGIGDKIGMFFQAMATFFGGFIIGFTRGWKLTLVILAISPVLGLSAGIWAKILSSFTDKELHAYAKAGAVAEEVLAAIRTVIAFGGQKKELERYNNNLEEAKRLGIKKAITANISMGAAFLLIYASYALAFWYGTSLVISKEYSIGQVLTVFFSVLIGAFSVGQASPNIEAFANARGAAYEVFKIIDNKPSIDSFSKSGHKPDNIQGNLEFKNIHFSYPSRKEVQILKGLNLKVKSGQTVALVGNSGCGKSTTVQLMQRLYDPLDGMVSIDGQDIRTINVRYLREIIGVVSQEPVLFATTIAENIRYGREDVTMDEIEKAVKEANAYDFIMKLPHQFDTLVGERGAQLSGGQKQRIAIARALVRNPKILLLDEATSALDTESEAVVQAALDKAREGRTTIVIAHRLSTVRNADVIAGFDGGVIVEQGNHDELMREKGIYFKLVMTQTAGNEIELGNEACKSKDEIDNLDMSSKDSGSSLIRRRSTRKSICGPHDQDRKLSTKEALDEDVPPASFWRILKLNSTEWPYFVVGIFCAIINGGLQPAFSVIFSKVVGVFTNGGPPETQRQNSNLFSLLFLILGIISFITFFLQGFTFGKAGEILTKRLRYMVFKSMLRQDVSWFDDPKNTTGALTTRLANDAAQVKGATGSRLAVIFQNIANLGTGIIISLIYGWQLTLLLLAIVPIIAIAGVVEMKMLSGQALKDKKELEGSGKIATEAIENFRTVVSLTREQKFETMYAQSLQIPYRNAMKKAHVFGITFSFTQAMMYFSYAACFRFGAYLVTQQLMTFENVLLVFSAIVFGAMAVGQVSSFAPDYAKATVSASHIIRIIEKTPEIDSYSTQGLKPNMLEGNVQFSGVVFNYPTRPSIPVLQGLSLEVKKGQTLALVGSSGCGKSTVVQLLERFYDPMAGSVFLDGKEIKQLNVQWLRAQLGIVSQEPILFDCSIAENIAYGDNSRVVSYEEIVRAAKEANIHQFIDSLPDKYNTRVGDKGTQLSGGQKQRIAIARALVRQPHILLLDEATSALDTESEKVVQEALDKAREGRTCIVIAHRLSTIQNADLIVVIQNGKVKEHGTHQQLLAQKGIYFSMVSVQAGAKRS

ATP-dependent translocase ABCB1 (Homo sapiens, UniProt P08183), sequence (P08183 whole entry): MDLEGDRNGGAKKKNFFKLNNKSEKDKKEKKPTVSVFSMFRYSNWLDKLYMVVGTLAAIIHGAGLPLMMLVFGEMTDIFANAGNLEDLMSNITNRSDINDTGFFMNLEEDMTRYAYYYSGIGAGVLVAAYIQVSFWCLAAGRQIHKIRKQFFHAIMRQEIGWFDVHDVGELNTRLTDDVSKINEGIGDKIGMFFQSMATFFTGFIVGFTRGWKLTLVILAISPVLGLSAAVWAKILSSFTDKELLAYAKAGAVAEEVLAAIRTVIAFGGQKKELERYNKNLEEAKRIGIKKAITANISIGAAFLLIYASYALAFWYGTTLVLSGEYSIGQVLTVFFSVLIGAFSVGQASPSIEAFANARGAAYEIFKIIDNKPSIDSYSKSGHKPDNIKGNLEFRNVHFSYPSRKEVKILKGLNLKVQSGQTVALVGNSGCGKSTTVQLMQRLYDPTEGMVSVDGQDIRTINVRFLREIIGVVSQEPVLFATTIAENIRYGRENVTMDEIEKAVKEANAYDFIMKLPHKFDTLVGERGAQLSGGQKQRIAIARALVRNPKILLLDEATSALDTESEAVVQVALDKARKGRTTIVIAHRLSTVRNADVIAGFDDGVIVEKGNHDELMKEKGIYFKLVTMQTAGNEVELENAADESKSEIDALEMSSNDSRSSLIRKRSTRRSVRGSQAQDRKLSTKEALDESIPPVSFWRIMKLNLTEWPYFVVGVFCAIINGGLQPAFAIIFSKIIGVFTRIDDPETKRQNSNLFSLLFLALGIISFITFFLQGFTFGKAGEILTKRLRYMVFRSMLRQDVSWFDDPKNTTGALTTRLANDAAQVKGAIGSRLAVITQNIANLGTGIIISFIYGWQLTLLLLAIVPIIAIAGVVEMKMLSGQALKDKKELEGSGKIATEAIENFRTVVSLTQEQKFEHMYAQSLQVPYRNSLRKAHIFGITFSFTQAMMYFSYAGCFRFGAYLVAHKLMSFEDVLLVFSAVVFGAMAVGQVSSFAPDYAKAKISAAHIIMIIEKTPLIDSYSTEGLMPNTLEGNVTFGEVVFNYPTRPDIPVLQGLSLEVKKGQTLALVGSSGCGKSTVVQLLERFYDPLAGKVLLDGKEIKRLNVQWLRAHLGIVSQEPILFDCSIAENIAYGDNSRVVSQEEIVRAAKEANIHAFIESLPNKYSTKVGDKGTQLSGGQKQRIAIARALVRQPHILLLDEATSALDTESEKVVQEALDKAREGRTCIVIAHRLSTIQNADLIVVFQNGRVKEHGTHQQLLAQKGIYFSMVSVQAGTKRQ

**Q.** Which results are given for CC(C)(C)NCC(O)COc1ccccc1C#N (configuration not stated) [BUNITROLOL]?
**A.** Activity [1]: substrate [+]; Activity [2]: substrate [+]
